{"source": "ChEMBL document CHEMBL3045905", "about": "“Synthesis and evaluation of curcumin analogues as cytotoxic agents” (Med Chem Res, 2010)", "key": {"[1]": {"test": "Cytotoxicity against Mus musculus (mouse) EAC assessed as cell viability by trypan blue exclusion assay", "assay_type": "functional, Ehrlich"}, "Mus musculus [2]": {"test_system": "Mus musculus", "test": "Toxicity in Mus musculus Swiss Albino (mouse) xenografted with Mus musculus (mouse) EAC assessed as increase in body weight at 50 to 250 mg/kg/day, ip measured on day 14", "assay_type": "organism-based", "design": "route intraperitoneal", "details": "in vivo"}, "[3]": {"test": "Antitumor activity against Mus musculus (mouse) EAC xenografted in Mus musculus (mouse) assessed as normalization of hemoglobin level at 50 to 250 mg/kg/day, ip measured on day 14 (reference value: 8.7 g/dl)", "assay_type": "functional, Ehrlich", "details": "route intraperitoneal"}, "[4]": {"test": "Antitumor activity against Mus musculus (mouse) EAC xenografted in Mus musculus (mouse) assessed as normalization of hematocrit at 50 to 250 mg/kg/day, ip measured on day 14 (reference value: 35.5%)", "assay_type": "functional, Ehrlich", "details": "route intraperitoneal"}, "Ehrlich [5]": {"test_system": "Ehrlich", "test": "Antitumor activity against Mus musculus (mouse) EAC xenografted in Mus musculus (mouse) assessed as normalization of WBC level at 50 to 250 mg/kg/day, ip measured on day 14 relative to untreated control", "assay_type": "functional, organism-based"}, "[6]": {"test": "Antitumor activity against Mus musculus (mouse) EAC xenografted in Mus musculus (mouse) assessed as decrease in tumor number at 50 to 250 mg/kg/day, ip measured on day 14 by Giemsa staining (reference value: 220 million/ml)", "assay_type": "functional, Ehrlich", "details": "route intraperitoneal"}, "[7]": {"test": "Antitumor activity against Mus musculus (mouse) EAC xenografted in Mus musculus (mouse) assessed as increase in mean survival time at 50 to 250 mg/kg/day, ip after 9 days (reference value: 9.1 days)", "assay_type": "functional, Ehrlich", "details": "route intraperitoneal"}, "[8]": {"test": "Antitumor activity against Mus musculus (mouse) EAC xenografted in Mus musculus (mouse) assessed as normalization of hematocrit at 20 mg/kg/day, ip measured on day 14 (reference value: 35.5%)", "assay_type": "functional, Ehrlich", "details": "route intraperitoneal"}, "Mus musculus [9]": {"test_system": "Mus musculus", "test": "Toxicity in Mus musculus Swiss Albino (mouse) xenografted with Mus musculus (mouse) EAC assessed as increase in body weight at 20 mg/kg/day, ip measured on day 14", "assay_type": "organism-based", "design": "route intraperitoneal", "details": "in vivo"}, "[10]": {"test": "Antitumor activity against Mus musculus (mouse) EAC xenografted in Mus musculus (mouse) assessed as normalization of hemoglobin level at 20 mg/kg/day, ip measured on day 14 (reference value: 8.7 g/dl)", "assay_type": "functional, Ehrlich", "details": "route intraperitoneal"}, "Ehrlich [11]": {"test_system": "Ehrlich", "test": "Antitumor activity against Mus musculus (mouse) EAC xenografted in Mus musculus (mouse) assessed as normalization of WBC level at 20 mg/kg/day, ip measured on day 14 relative to untreated control", "assay_type": "functional, organism-based"}, "[12]": {"test": "Antitumor activity against Mus musculus (mouse) EAC xenografted in Mus musculus (mouse) assessed as decrease in tumor number at 20 mg/kg/day, ip measured on day 14 by Giemsa staining (reference value: 220 million/ml)", "assay_type": "functional, Ehrlich", "details": "route intraperitoneal"}, "[13]": {"test": "Antitumor activity against Mus musculus (mouse) EAC xenografted in Mus musculus (mouse) assessed as increase in mean survival time at 20 mg/kg/day, ip after 9 days (reference value: 9.1 days)", "assay_type": "functional, Ehrlich", "details": "route intraperitoneal"}}, "note": "Activity calls are given as the source filed them. The calls are words filed in the database; no cut-off is given here.", "data": [{"compound": "COc1ccc(NN=C(C(=O)/C=C/c2ccc(O)c(OC)c2)C(=O)/C=C/c2ccc(O)c(OC)c2)cc1", "values": [{"measurement": "ED25", "setting": "[1]", "value": 3.4, "unit": "mM"}]}, {"compound": "COc1cc(/C=C/c2cc(/C=C/c3ccc(O)c(OC)c3)n(N=O)n2)ccc1O", "values": [{"measurement": "ED25", "setting": "[1]", "value": 6.7, "unit": "mM"}]}, {"compound": "COc1cc(/C=C/C(=O)/C(=N\\Nc2ccc([N+](=O)[O-])cc2)C2=NC(=S)NC(c3ccc(O)c(OC)c3)C2)ccc1O", "note": "(stereo not drawn)", "values": [{"measurement": "ED10", "setting": "[1]", "value": 2.9, "unit": "mM"}]}, {"compound": "COc1cc(/C=C/C(=O)CC(=O)/C=C/c2ccc(O)c(OC)c2)ccc1O", "note": "[CURCUMIN]", "values": [{"measurement": "ED10", "setting": "[1]", "value": 3.4, "unit": "mM"}, {"measurement": "ED25", "setting": "[1]", "value": 4.8, "unit": "mM"}]}, {"compound": "COc1cc(/C=C/C(=O)C(=NNc2ccc([N+](=O)[O-])cc2)C(=O)/C=C/c2ccc(O)c(OC)c2)ccc1O", "values": [{"measurement": "ED10", "setting": "[1]", "value": 2.5, "unit": "mM"}, {"measurement": "ED25", "setting": "[1]", "value": 2.8, "unit": "mM"}]}, {"compound": "COc1cc(C2C=C(C(=NNc3ccc([N+](=O)[O-])cc3)C3=CC(c4ccc(O)c(OC)c4)ON3)NO2)ccc1O", "note": "(stereo not drawn)", "values": [{"measurement": "ED25", "setting": "[1]", "value": 5.3, "unit": "mM"}]}, {"compound": "COc1cc(/C=C/c2cc(/C=C/c3cc(/N=N/c4ccc(Cl)cc4)c(O)c(OC)c3)n(CO)n2)cc(/N=N/c2ccc(Cl)cc2)c1O", "values": [{"measurement": "ED25", "setting": "[1]", "value": 3.6, "unit": "mM"}]}, {"compound": "COc1cc(/C=C/C(=O)/C(=N\\Nc2ccc([N+](=O)[O-])cc2)C(=O)C(Br)C(Br)c2ccc(O)c(OC)c2)ccc1O", "note": "(stereo not drawn)", "values": [{"measurement": "ED25", "setting": "[1]", "value": 3.2, "unit": "mM"}]}, {"compound": "COc1cc(/C=C/c2cc(/C=C/c3ccc(O)c(OC)c3)[nH]n2)ccc1O", "note": "[CURCUMIN PYRAZOLE]", "values": [{"measurement": "Activity", "setting": "Mus musculus [2]", "value": "Toxic"}, {"measurement": "Activity", "setting": "[3]", "value": 9.4, "unit": "g/dL"}, {"measurement": "Activity", "setting": "[4]", "value": 41, "unit": "%"}, {"measurement": "Activity", "setting": "Ehrlich [5]", "value": "Active"}, {"measurement": "Activity", "setting": "[6]", "value": 169.6, "unit": "×10⁶ /ml"}, {"measurement": "MST", "setting": "[7]", "value": 14.6, "unit": "days"}, {"measurement": "ED25", "setting": "[1]", "value": 66.7, "unit": "mM"}]}, {"compound": "COc1cc(/C=C/C(=O)C(=NNc2ccc(Cl)cc2)C(=O)/C=C/c2ccc(O)c(OC)c2)ccc1O", "values": [{"measurement": "ED25", "setting": "[1]", "value": 3.2, "unit": "mM"}]}, {"compound": "COc1cc(/C=C/C(=O)C(=NNc2ccc(C)cc2)C(=O)/C=C/c2ccc(O)c(OC)c2)ccc1O", "values": [{"measurement": "ED10", "setting": "[1]", "value": 2.4, "unit": "mM"}]}, {"compound": "COc1cc(/C=C/c2cc(/C=C/c3ccc(O)c(OC)c3)n(NN)n2)ccc1O", "values": [{"measurement": "ED25", "setting": "[1]", "value": 22.2, "unit": "mM"}]}, {"compound": "O=c1[nH]cc(F)c(=O)[nH]1", "note": "[FLUOROURACIL]", "values": [{"measurement": "Activity", "setting": "[8]", "value": 42.3, "unit": "%"}, {"measurement": "Activity", "setting": "Mus musculus [9]", "value": "Toxic"}, {"measurement": "Activity", "setting": "[10]", "value": 10, "unit": "g/dL"}, {"measurement": "Activity", "setting": "Ehrlich [11]", "value": "Active"}, {"measurement": "Activity", "setting": "[12]", "value": 123, "unit": "×10⁶ /ml"}, {"measurement": "MST", "setting": "[13]", "value": 16.7, "unit": "days"}]}, {"compound": "COc1cc(C2CC(C(=NNc3ccc([N+](=O)[O-])cc3)C3=NC(=S)NC(c4ccc(O)c(OC)c4)C3)=NC(=S)N2)ccc1O", "note": "(stereo not drawn)", "values": [{"measurement": "ED25", "setting": "[1]", "value": 4.8, "unit": "mM"}]}, {"compound": "COc1cc(C2CC(C(=NNc3ccc([N+](=O)[O-])cc3)C3=NNC(c4ccc(O)c(OC)c4)C3)=NN2)ccc1O", "note": "(stereo not drawn)", "values": [{"measurement": "ED25", "setting": "[1]", "value": 38.9, "unit": "mM"}]}]}
